From patent US5294539A, “Nitrate reductase from yeasts, the preparation and use thereof” (Merck Patent Gesellschaft mit beschrankter Haftung, priority 1990, dated 1994)

Target: NADH-dependent nitrate reductase ([Candida] boidinii, UniProt A0ACB5TRL5)
Sequence (A0ACB5TRL5 entry or part of it): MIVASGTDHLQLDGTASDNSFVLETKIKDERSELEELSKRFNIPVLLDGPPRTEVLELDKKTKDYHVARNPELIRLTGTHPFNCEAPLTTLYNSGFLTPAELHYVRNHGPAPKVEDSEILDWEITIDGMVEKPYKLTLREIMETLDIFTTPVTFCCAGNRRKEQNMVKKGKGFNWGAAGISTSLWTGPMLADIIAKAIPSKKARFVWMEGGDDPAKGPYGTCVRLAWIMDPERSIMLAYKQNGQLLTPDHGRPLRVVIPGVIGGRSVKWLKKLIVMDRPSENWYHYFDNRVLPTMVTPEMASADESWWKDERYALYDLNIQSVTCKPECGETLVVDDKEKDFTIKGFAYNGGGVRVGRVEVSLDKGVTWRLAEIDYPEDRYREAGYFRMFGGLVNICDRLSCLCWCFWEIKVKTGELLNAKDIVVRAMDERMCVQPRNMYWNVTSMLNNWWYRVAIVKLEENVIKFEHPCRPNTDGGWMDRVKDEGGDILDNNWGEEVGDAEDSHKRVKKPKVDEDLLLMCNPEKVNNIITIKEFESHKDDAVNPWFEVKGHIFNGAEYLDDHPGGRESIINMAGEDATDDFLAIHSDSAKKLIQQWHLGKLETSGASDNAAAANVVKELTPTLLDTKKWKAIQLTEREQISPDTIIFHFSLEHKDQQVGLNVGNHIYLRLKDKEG

## O=NO [nitrite]
  End-product inhibition: up to 50%
